Data as given in patent publication US11161856B2 (H. Lundbeck A/S, priority 2017, dated 2021).

Assays:
[1] = biological target: T1, MGLL (Mus musculus, UniProt O35678); experiment: In vitro competitive activity-based protein profiling, mouse brain proteome (MGLL); type: biochemical; settings: concentration not given (μM)
T1 construct: Brain; from tissue; host or cells: mouse brain proteome
T1 sequence (O35678 1-303): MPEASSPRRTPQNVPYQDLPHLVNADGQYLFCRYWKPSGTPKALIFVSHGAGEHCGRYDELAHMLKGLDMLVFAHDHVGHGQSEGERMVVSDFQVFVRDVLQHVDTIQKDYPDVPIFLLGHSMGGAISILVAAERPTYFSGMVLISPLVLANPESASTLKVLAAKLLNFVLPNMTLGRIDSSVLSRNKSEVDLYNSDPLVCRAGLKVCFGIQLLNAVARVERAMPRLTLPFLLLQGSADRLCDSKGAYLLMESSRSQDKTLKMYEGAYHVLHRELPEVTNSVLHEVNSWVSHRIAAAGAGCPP

[2] = biological target: T2, ABHD6 (Mus musculus, UniProt Q8R2Y0); experiment: In vitro competitive activity-based protein profiling, mouse brain proteome (ABHD6); type: biochemical; settings: mouse brain proteome; concentration not given (μM)
T2 construct: Brain; from tissue; host or cells: mouse brain proteome
T2 sequence (Q8R2Y0 1-336): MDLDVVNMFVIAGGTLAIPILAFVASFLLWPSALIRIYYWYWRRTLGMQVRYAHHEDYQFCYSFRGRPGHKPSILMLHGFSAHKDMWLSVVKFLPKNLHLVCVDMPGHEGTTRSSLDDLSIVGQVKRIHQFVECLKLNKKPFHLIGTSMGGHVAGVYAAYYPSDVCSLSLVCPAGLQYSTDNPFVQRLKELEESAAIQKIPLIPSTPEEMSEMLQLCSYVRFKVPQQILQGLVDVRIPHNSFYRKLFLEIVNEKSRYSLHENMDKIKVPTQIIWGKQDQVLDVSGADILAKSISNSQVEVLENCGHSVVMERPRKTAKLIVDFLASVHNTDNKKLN
Procedure: [The source words this procedure for another target and reports this target under the same test.] In Vitro Competitive Activity-Based Protein Profiling.
Proteomes (human prefrontal cortex or cell membrane fractions) (50 μL, 1.0 mg/mL total protein concentration) were preincubated with varying concentrations of inhibitors at 37° C. After 30 min, FP-Rh or HT-01 (1.0 μL, 50 μM in DMSO) was added and the mixture was incubated for another 30 min at room temperature. Reactions were quenched with SDS loading buffer (15 μL-4×) and run on SDS-PAGE.

Row | Structure (SMILES) | % Inh MGLL Brain (Mouse, μM) [1] | % Inh ABHD6 Brain (Mouse, μM) [2]
1 | O=C(OC(C(F)(F)F)C(F)(F)F)N1CCC2(CC1)CN(Cc1c(Cl)cccc1N1CCOCC1)C2 [Example 46, 1,1,1,3,3,3-Hexafluoropropan-2-yl 2-(2-chloro-6-morpholinobenzyl)-2,7-diazaspiro[3.5]nonane-7-carboxylate] | ### (### is ≥75%) | ### (### is ≥75%)
2 | O=C(OC(C(F)(F)F)C(F)(F)F)N1CCC2(CC1)CN(Cc1c(Cl)cccc1N1CCC(F)CC1)C2 [Example 47, 1,1,1,3,3,3-Hexafluoropropan-2-yl 2-(2-chloro-6-(4-fluoropiperidin-1-yl)benzyl)-2,7-diazaspiro[3.5]nonane-7-carboxylate] | ### (### is ≥75%) | ### (### is ≥75%)
3 | O=C(OC(C(F)(F)F)C(F)(F)F)N1CCC2(CC1)CN(Cc1c(Cl)cccc1N1CCC3(CCOCC3)C1)C2 [Example 48, 1,1,1,3,3,3-Hexafluoropropan-2-yl 2-(2-chloro-6-(8-oxa-2-azaspiro[4.5]decan-2-yl)benzyl)-2,7-diazaspiro[3.5]nonane-7-carboxylate] | ### (### is ≥75%) | ### (### is ≥75%)
4 | CC(=O)N1CCN(c2cccc(Cl)c2CN2CC3(CCN(C(=O)OC(C(F)(F)F)C(F)(F)F)CC3)C2)CC1 [Example 49, 1,1,1,3,3,3-Hexafluoropropan-2-yl 2-(2-(4-acetylpiperazin-1-yl)-6-chlorobenzyl)-2,7-diazaspiro[3.5]nonane-7-carboxylate] | ### (### is ≥75%) | ### (### is ≥75%)
5 | CCN1CCN(c2cccc(Cl)c2CN2CC3(CCN(C(=O)OC(C(F)(F)F)C(F)(F)F)CC3)C2)CC1 [Example 50, 1,1,1,3,3,3-Hexafluoropropan-2-yl 2-(2-chloro-6-(4-ethylpiperazin-1-yl)benzyl)-2,7-diazaspiro[3.5]nonane-7-carboxylate] | ### (### is ≥75%) | ### (### is ≥75%)
6 | O=C(OC(C(F)(F)F)C(F)(F)F)N1CCC2(CC1)CN(Cc1c(N3CCC(F)CC3)cccc1C(F)(F)F)C2 [Example 51, 1,1,1,3,3,3-Hexafluoropropan-2-yl 2-(2-(4-fluoropiperidin-1-yl)-6-(trifluoromethyl)benzyl)-2,7-diazaspiro[3,5]nonane-7-carboxylate] | ### (### is ≥75%) | ### (### is ≥75%)
7 | O=C(OC(C(F)(F)F)C(F)(F)F)N1CCC2(CC1)CN(Cc1c(N3CCC4(CCOCC4)C3)cccc1C(F)(F)F)C2 [Example 52, 1,1,1,3,3,3-Hexafluoropropan-2-yl 2-(2-(8-oxa-2-azaspiro[4.5]decan-2-yl)-6-(trifluoromethyl)benzyl)-2,7-diazaspiro[3.5]nonane-7-carboxylate] | ### (### is ≥75%) | ### (### is ≥75%)
8 | CS(=O)(=O)N1CCN(c2cccc(C(F)(F)F)c2CN2CC3(CCN(C(=O)OC(C(F)(F)F)C(F)(F)F)CC3)C2)CC1 [Example 53, 1,1,1,3,3,3-Hexafluoropropan-2-yl 2-(2-(4-(methylsulfonyl)piperazin-1-yl)-6-(trifluoromethyl)benzyl)-2,7-diazaspiro[3.5]nonane-7-carboxylate] | ### (### is ≥75%) | ### (### is ≥75%)
9 | CCN1CCN(c2cccc(C(F)(F)F)c2CN2CC3(CCN(C(=O)OC(C(F)(F)F)C(F)(F)F)CC3)C2)CC1 [Example 54, 1,1,1,3,3,3-Hexafluoropropan-2-yl 2-(2-(4-ethylpiperazin-1-yl)-6-(trifluoromethyl)benzyl)-2,7-diazaspiro[3.5]nonane-7-carboxylate] | ### (### is ≥75%) | # (# is ≤25%)
10 | O=C(OC(C(F)(F)F)C(F)(F)F)N1CC2(CCN(Cc3ccc(Cl)c(Cl)c3)CC2)C1 [Example 55, 1,1,1,3,3,3-Hexafluoropropan-2-yl 7-(3,4-dichlorobenzyl)-2,7-diazaspiro[3,5]nonane-2-carboxylate] | ## (## is between 25 and 75%) | ### (### is ≥75%)
11 | O=C(OC(C(F)(F)F)C(F)(F)F)N1CC2(CCN(Cc3ccc(C(F)(F)F)cc3)CC2)C1 [Example 56, 1,1,1,3,3,3-Hexafluoropropan-2-yl 7-(4-(trifluoromethyl)benzyl)-2,7-diazaspiro[3.5]nonane-2-carboxylate] | ## (## is between 25 and 75%) | ### (### is ≥75%)
12 | O=C(OC(C(F)(F)F)C(F)(F)F)N1CCC2(CC1)CN(Cc1c(Cl)cccc1N1CC3COCC3C1)C2 (stereo not drawn) [Example 57, 1,1,1,3,3,3-Hexafluoropropan-2-yl 2-(2-chloro-6-(tetrahydro-1H-furo[3,4-c]pyrrol-5(3H)-yl)benzyl)-2,7-diazaspiro[3.5]nonane-7-carboxylate] | ### (### is ≥75%) | ### (### is ≥75%)
13 | O=C(OC(C(F)(F)F)C(F)(F)F)N1CCC2(CC1)CN(Cc1c(Cl)cccc1N1CCN(C3CC3)CC1)C2 [Example 58, 1,1,1,3,3,3-Hexafluoropropan-2-yl 2-(2-chloro-6-(4-cyclopropvlpiperazin-1-yl)benzyl)-2,7-diazaspiro[3.5]nonane-7-carboxylate] | ### (### is ≥75%) | ### (### is ≥75%)
14 | CC(=O)N1CCN(c2cccc(C(F)(F)F)c2CN2CC3(CCN(C(=O)OC(C(F)(F)F)C(F)(F)F)CC3)C2)CC1 [Example 59, 1,1,1,3,3,3-Hexafluoropropan-2-yl 2-(2-(4-acetylpiperazin-1-yl)-6-(trifluoromethyl)benzyl)-2,7-diazaspiro[3.5]nonane-7-carboxylate] | ### (### is ≥75%) | ### (### is ≥75%)
15 | O=C(OC(C(F)(F)F)C(F)(F)F)N1CCC2(CC1)CN(Cc1c(N3CCN(C4CC4)CC3)cccc1C(F)(F)F)C2 [Example 60, 1,1,1,3,3,3-Hexafluoropropan-2-yl 2-(2-(4-cyclopropylpiperazin-1-yl)-6-(trifluoromethyl)benzyl)-2,7-diazaspiro[3.5]nonane-7-carboxylate] | ### (### is ≥75%) | ### (### is ≥75%)
16 | CS(=O)(=O)N1CCC2(CCN(c3cccc(Cl)c3CN3CC4(CCN(C(=O)OC(C(F)(F)F)C(F)(F)F)CC4)C3)CC2)C1 [Example 61, 1,1,1,3,3,3-Hexafluoropropan-2-yl 2-(2-chloro-6-(2-(methylsulfonyl)-2,8-diazaspiro[4.5]decan-8-yl)benzyl)-2,7-diazaspiro[3.5]nonane-7-carboxylate] | ### (### is ≥75%) | ### (### is ≥75%)
17 | CS(=O)(=O)N1CCC2(CCN(c3cccc(C(F)(F)F)c3CN3CC4(CCN(C(=O)OC(C(F)(F)F)C(F)(F)F)CC4)C3)CC2)C1 [Example 62, 1,1,1,3,3,3-Hexafluoropropan-2-yl 2-(2-(2-(methylsulfonyl)-2,8-diazaspiro[4.5]decan-8-yl)-6-(trifluoromethyl)benzyl)-2,7-diazaspiro[3.5]nonane-7-carboxylate] | ### (### is ≥75%) | ### (### is ≥75%)
18 | CN(Cc1ccc(C(F)(F)F)cc1N1CCOCC1)C1(C)CCN(C(=O)OC(C(F)(F)F)C(F)(F)F)CC1 [Example 63, 1,1,1,3,3,3-Hexafluoropropan-2-yl 4-methyl-4-(methyl(2-morpholino-4-(trifluoromethyl)benzyl)amino) piperidine-1-carboxylate] | ### (### is ≥75%) | ### (### is ≥75%)
19 | O=C(OC(C(F)(F)F)C(F)(F)F)N1CC2(CCN(Cc3cccc(Oc4ccccc4)c3)CC2)C1 [Example 64, 1,1,1,3,3,3-Hexafluoropropan-2-yl 7-(3-phenoxybenzyl)-2,7-diazaspiro[3,5]nonane-2-carboxylate] | ## (## is between 25 and 75%) | ### (### is ≥75%)
20 | O=C(OC(C(F)(F)F)C(F)(F)F)N1CC2(CCN(Cc3ccc(N4CCOCC4)cc3)CC2)C1 [Example 65, 1,1,1,3,3,3-Hexafluoropropan-2-yl 7-(4-morpholinobenzyl)-2,7-diazaspiro[3.5]nonane-2-carboxylate] | ### (### is ≥75%) | ### (### is ≥75%)
21 | O=C(OC(C(F)(F)F)C(F)(F)F)N1CCC2(CC1)CN(Cc1ccc(Cl)c(Cl)c1)C2 [Example 67, 1,1,1,3,3,3-Hexafluoropropan-2-yl 2-(3,4-dichlorobenzyl)-2,7-diazaspiro[3,5]nonane-7-carboxylate] | ### (### is ≥75%) | ### (### is ≥75%)
